Patent US9693982B2, “Composition for amelioration of hypoalbuminemia” (OTSUKA PHARMACEUTICAL FACTORY, INC., priority 2010, dated 2017)

Tested on: albumin mRNA
Assay: Albumin mRNA expression of cultured human hepatocytes (Experiment 1, real time RT-PCR)
Assay type: cell-based
Conditions: for Expression level of albumin mRNA (mean ± SD): 24 hours after addition, ratio based on HPRT1 mRNA (regarded as 1), human hepatocytes Lot 100, triplicate; for Effect on albumin mRNA expression level (in words): human hepatocytes, 20 mM, 60 mM
Protocol: In this test, human primary cultured hepatocytes were cultured by each test solution to check a change of albumin mRNA expressional potency and a change of secretion level of albumin. The test was performed as follows.
Albumin mRNA and HPRT1 mRNA were measured. The nucleotide sequences of albumin and HPRT1 are registered in the GenBank as follows and each nucleotide sequence follows the sequence registered.
Note that, HPRT1, which is a house keeping gene serving as a control, was measured in the same test. The sequences of primers and probes used in measurement of albumin are made public in Nishimura, M., Yoshitsugu, H., Yokoi, T., Tateno, C., Kataoka, M., Horie, T., Yoshizato, K. and Naito, S.: Evaluation of mRNA expression of human drug-metabolizing enzymes and transporters in chimeric mouse with humanized liver. Xenobiotica, 35: 877-890 (2005). Furthermore, the sequences of primers and probes used in measurement of HPRT1 are made public in Nishimura, M., Naito, S. and Yokoi, T.: Tissue-specific mRNA expression profiles of human nuclear receptor subfamilies. Drug Metab. Pharmacokinet., 19: 135-149 (2004).
Furthermore, mRNA was quantified by use of the primer pairs and probe represented by individual sequences (the position of initiation codon follows the each nucleotide sequence registered) shown in the following Table 1 and in accordance with RT-PCR (Real-time quantitative reverse transcription-polymerase reaction). Each of the primers and probe was prepared by an automatic DNA synthesizer.
As the test solution of the Livact composition, a Livact composition was dissolved such that the concentrations of Ile, Leu, and Val became 13.8 mM, 27.7 mM, and 18.5 mM, respectively after blending (60 mM as the concentration of the Livact composition test solution). Note that, in the dissolution procedure, a Livact composition was dissolved in Buffer A and then a medium was added in an amount 1/10 as low as that of Buffer A.
As an Ile, Leu or Val solution, Ile, Leu or Val was dissolved so as to have a concentration of 60 mM. Note that, in the dissolution procedure, Ile, Leu or Val was dissolved in Buffer A and then a medium was added in an amount 1/10 as low as that of Buffer A.
The Livact composition test solution prepared in Section (2-3) and Ile, Leu or Val solution prepared in Section (2-4) were diluted 3 fold with Buffer B to prepare a 20 mM solution.
According to a method of Nishimura et al. (Nishimura, M., Yoshitsugu, H., Naito, S. and Hiraoka, I.: Evaluation of gene induction of drug-metabolizing enzymes and transporters in primary culture of human hepatocytes using high-sensitivity real-time reverse transcription PCR. Yakugaku Zasshi, 122: 339-361 (2002)), 1×10^5 cells/400 μL was dispensed in each well of a 24 well plate and cultured in a CO2 incubator. After 3 hours, medium exchange was performed. Further after 21 hours (24 hours after inoculation), medium exchange was performed. Thereafter, the medium was exchanged every 24 hours. Note that, the amount of liquid medium to be exchanged was set at 400 μL/well. Furthermore, exchange to each test solution was performed at the after 48 hours at which medium exchange was performed.
After human hepatocytes (1×10^5 viable cells/0.4 mL/well) were inoculated, medium exchange was performed 3 hours and 24 hours after inoculation. Note that, the viability at the inoculating time was 90.4% (Lot 100). Then, 48 hours after inoculation, a test substance was added and 24 hours after addition of the test substance was initiated, Total RNA was extracted (using Rneasy Mini Kit). Quantification of mRNA of albumin and HPRT1 was performed by real time RT-PCR. Note that, HPRT1, which is a house keeping gene, was used as an internal standard.
After the medium was suctioned, Total RNA was extracted by use of QIA shredder and Rneasy Mini Kit. Now, a preparation method using the Kit will be described below. […]

Row | Compound | Expression level of albumin mRNA (mean ± SD) (20 mM total test substance) | Expression level of albumin mRNA (mean ± SD) (60 mM total test substance) | Effect on albumin mRNA expression level (in words)
1 | CC(C)[C@H](N)C(=O)O [Val, Valine, reference compound] | 127 ± 17 | 118 ± 10 | –
2 | CC(C)C[C@H](N)C(=O)O [Leu, Leucine] | 215 ± 63 | 255 ± 53 | increases in an additive manner
3 | CC[C@H](C)[C@H](N)C(=O)O [Ile, Isoleucine] | 174 ± 33 | 222 ± 27 | increases in an additive manner
